# In PubChem BioAssay AID328 (DTP/NCI, 2004):
# Several values for one entry are separate records, joined by “and”; a condition that tells them apart may be missing. Equal values may be shown once. Toxic doses and inconclusive results are not listed.
# Test system: BDF1 mice, P388 leukemia ip, median survival T/C
# Assay: NCI In Vivo Anticancer Drug Screen. Data for tumor model P388 Leukemia (intraperitoneal) in B6D2F1 (BDF1) mice
# Conditions: endpoint: median survival time, higher = longer survival
# Method in brief: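 Each value expresses how treatment altered survival: treated-mouse outcome over vehicle-mouse outcome, both groups bearing the transplanted tumour.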
# [1] = dose: 100.0 mg/kg/injection, schedule: Q04DX003 (ip), vehicle: saline
# [2] = dose: 50.0 mg/kg/injection, schedule: Q01DX009 (ip), vehicle: saline with Tween-80
# [3] = dose: 100.0 mg/kg/injection, schedule: Q01DX009 (ip), vehicle: saline with Tween-80
# [4] = dose: 200.0 mg/kg/injection, schedule: Q01DX009 (ip), vehicle: saline with Tween-80
# [5] = dose: 25.0 mg/kg/injection, schedule: Q01DX009 (ip), vehicle: saline with Tween-80
# [6] = dose: 12.5 mg/kg/injection, schedule: Q04DX003 (ip), vehicle: Klucel (hydroxypropylcellulose) (HPC)
smiles,measurement,setting,value
CNc1nc(N)c(N=O)c(Nc2ccc(Br)cc2)n1,T/C,"dose: 62.5 mg/kg/injection, schedule: Q01DX010 (ip), vehicle: carboxymethylcellulose (CMC)",105 % of control
same,T/C,"dose: 125.0 mg/kg/injection, schedule: Q01DX010 (ip), vehicle: carboxymethylcellulose (CMC)",110 % of control
same,T/C,"dose: 250.0 mg/kg/injection, schedule: Q01DX010 (ip), vehicle: carboxymethylcellulose (CMC)",100 % of control
same,T/C,"dose: 500.0 mg/kg/injection, schedule: Q01DX010 (ip), vehicle: carboxymethylcellulose (CMC)",100 % of control
CCCCCCCCCCCCC1CC(=O)OC1=O (centres undefined),T/C,"dose: 75.0 mg/kg/injection, schedule: Q01DX009 (ip), vehicle: Klucel (hydroxypropylcellulose) (HPC)",90 % of control
same,T/C,"dose: 100.0 mg/kg/injection, schedule: Q04DX003 (ip), vehicle: Klucel (hydroxypropylcellulose) (HPC)",104 % of control
same,T/C,[1],108 % of control
same,T/C,"dose: 150.0 mg/kg/injection, schedule: Q01DX009 (ip), vehicle: Klucel (hydroxypropylcellulose) (HPC)",90 % of control
same,T/C,"dose: 200.0 mg/kg/injection, schedule: Q04DX003 (ip), vehicle: Klucel (hydroxypropylcellulose) (HPC)",109 % of control
same,T/C,"dose: 300.0 mg/kg/injection, schedule: Q01DX009 (ip), vehicle: Klucel (hydroxypropylcellulose) (HPC)",109 % of control
same,T/C,"dose: 400.0 mg/kg/injection, schedule: Q04DX003 (ip), vehicle: Klucel (hydroxypropylcellulose) (HPC)",100 % of control
same,T/C,"dose: 400.0 mg/kg/injection, schedule: Q04DX003 (ip), vehicle: saline",120 % of control
CCOC(=O)C[P+](c1ccccc1)(c1ccccc1)c1ccccc1,T/C,"dose: 12.5 mg/kg/injection, schedule: Q04DX003 (ip), vehicle: saline",102 % of control
same,T/C,"dose: 25.0 mg/kg/injection, schedule: Q04DX003 (ip), vehicle: saline",102 % of control
same,T/C,"dose: 50.0 mg/kg/injection, schedule: Q04DX003 (ip), vehicle: saline",96 % of control
Fc1ccc(NC2=NCCN=C(Nc3ccc(F)cc3)SS2)cc1,T/C,[2],96 % of control
same,T/C,[3],87 % of control
same,T/C,[4],102 % of control
O=C(/C=C/c1ccc(OCc2ccccc2)cc1)c1ccccc1Cl,T/C,[2],96 % of control
same,T/C,[3],96 % of control
O=C(O)CNC(=O)COc1ccc(Cl)c(Cl)c1,T/C,[2],94 % of control
same,T/C,[3],92 % of control
same,T/C,[4],124 % of control
O=C1Nc2c(Cl)cc(Cl)cc2/C1=N/N=C/c1ccccc1O,T/C,"dose: 12.5 mg/kg/injection, schedule: Q01DX005 (ip), vehicle: saline with Tween-80",95 % of control
same,T/C,"dose: 25.0 mg/kg/injection, schedule: Q01DX005 (ip), vehicle: saline with Tween-80",95 % of control
same,T/C,"dose: 50.0 mg/kg/injection, schedule: Q01DX005 (ip), vehicle: saline with Tween-80",95 % of control
CC(=O)CSc1ncnc2nc[nH]c12,T/C,[3],109 % of control
same,T/C,[4],109 % of control
COc1cc([N+](=O)[O-])ccc1NC(=O)NCc1ccccc1,T/C,[2],95 % of control
same,T/C,[3],98 % of control
same,T/C,[4],98 % of control
same,T/C,"dose: 400.0 mg/kg/injection, schedule: Q01DX009 (ip), vehicle: saline with Tween-80",104 % of control
CC(=O)OCC1OC(OC2=C(CC=C(Cl)Cl)C(=O)c3ccccc3C2=O)C(OC(C)=O)C(OC(C)=O)C1OC(C)=O (centres undefined),T/C,[5],100 % of control
same,T/C,[2],100 % of control and 104 % of control
same,T/C,[3],100 % of control and 102 % of control
same,T/C,[4],117 % of control
O=C(NCc1ccco1)C(=O)NCc1ccco1,T/C,[2],87 % of control
same,T/C,[3],90 % of control
same,T/C,[4],98 % of control
O=S(=O)(ON=C1C=CC(=NOS(=O)(=O)c2ccccc2)C=C1)c1ccccc1,T/C,"dose: 3.13 mg/kg/injection, schedule: Q04DX003 (ip), vehicle: Klucel (hydroxypropylcellulose) (HPC)",109 % of control
same,T/C,"dose: 6.25 mg/kg/injection, schedule: Q04DX003 (ip), vehicle: Klucel (hydroxypropylcellulose) (HPC)",111 % of control
same,T/C,[6],109 % of control
same,T/C,"dose: 25.0 mg/kg/injection, schedule: Q04DX003 (ip), vehicle: Klucel (hydroxypropylcellulose) (HPC)",109 % of control
CC[n+]1ccc(Nc2ccc(NC(=O)c3ccc(Nc4cc[n+](CC)c5ccc(N)cc45)cc3)cc2)cc1,T/C,"dose: 0.02 mg/kg/injection, schedule: Q01DX010 (ip), vehicle: saline",115 % of control
same,T/C,"dose: 0.1 mg/kg/injection, schedule: Q01DX010 (ip), vehicle: saline",110 % of control
same,T/C,"dose: 0.5 mg/kg/injection, schedule: Q01DX009 (ip), vehicle: water",154 % of control
same,T/C,"dose: 0.5 mg/kg/injection, schedule: Q01DX010 (ip), vehicle: saline",170 % of control
same,T/C,"dose: 1.0 mg/kg/injection, schedule: Q01DX009 (ip), vehicle: water",158 % of control
same,T/C,"dose: 1.0 mg/kg/injection, schedule: Q01DX010 (ip), vehicle: saline",195 % of control
same,T/C,"dose: 2.0 mg/kg/injection, schedule: Q01DX009 (ip), vehicle: water",212 % of control
same,T/C,"dose: 2.0 mg/kg/injection, schedule: Q01DX010 (ip), vehicle: saline",275 % of control
same,T/C,"dose: 4.0 mg/kg/injection, schedule: Q01DX009 (ip), vehicle: water",250 % of control
same,T/C,"dose: 4.0 mg/kg/injection, schedule: Q01DX010 (ip), vehicle: saline",120 % of control
same,T/C,"dose: 8.0 mg/kg/injection, schedule: Q01DX009 (ip), vehicle: water",116 % of control
same,T/C,"dose: 8.0 mg/kg/injection, schedule: Q01DX010 (ip), vehicle: saline",100 % of control
COc1cccc2c1C(=O)c1c(O)c3c(c(O)c1C2=O)C[C@@](O)(C(C)=O)C[C@@H]3OC1CC(NC(C)=O)C(O)C(C)O1 (some centres undefined),T/C,"dose: 0.73 mg/kg/injection, schedule: Q01DX009 (ip), vehicle: saline",112 % of control
same,T/C,"dose: 1.1 mg/kg/injection, schedule: Q01DX009 (ip), vehicle: saline",175 % of control
same,T/C,"dose: 1.25 mg/kg/injection, schedule: Q04DX003 (ip), vehicle: saline",109 % of control
same,T/C,"dose: 1.65 mg/kg/injection, schedule: Q01DX009 (ip), vehicle: saline",183 % of control
same,T/C,"dose: 2.5 mg/kg/injection, schedule: Q01DX009 (ip), vehicle: saline",187 % of control
same,T/C,"dose: 10.0 mg/kg/injection, schedule: Q04DX003 (ip), vehicle: saline",172 % of control
same,T/C,"dose: 12.5 mg/kg/injection, schedule: Q01DX009 (ip), vehicle: saline",240 % of control and 191 % of control
same,T/C,"dose: 12.5 mg/kg/injection, schedule: Q01DX009 (ip), vehicle: water",169 % of control
same,T/C,"dose: 25.0 mg/kg/injection, schedule: Q01DX009 (ip), vehicle: saline",150 % of control
same,T/C,"dose: 25.0 mg/kg/injection, schedule: Q01DX009 (ip), vehicle: water",192 % of control
same,T/C,"dose: 44.0 mg/kg/injection, schedule: Q04DX003 (ip), vehicle: saline sonified",180 % of control
same,T/C,"dose: 44.0 mg/kg/injection, schedule: Q04DX003 (ip), vehicle: saline",159 % of control
same,T/C,"dose: 50.0 mg/kg/injection, schedule: Q01DX009 (ip), vehicle: saline",227 % of control
same,T/C,"dose: 50.0 mg/kg/injection, schedule: Q01DX009 (ip), vehicle: water",204 % of control
same,T/C,"dose: 66.0 mg/kg/injection, schedule: Q04DX003 (ip), vehicle: saline sonified",175 % of control
same,T/C,"dose: 66.0 mg/kg/injection, schedule: Q04DX003 (ip), vehicle: saline",181 % of control
same,T/C,"dose: 100.0 mg/kg/injection, schedule: Q01DX009 (ip), vehicle: water",114 % of control
same,T/C,"dose: 100.0 mg/kg/injection, schedule: Q04DX003 (ip), vehicle: saline sonified",205 % of control
same,T/C,[1],195 % of control
same,T/C,"dose: 150.0 mg/kg/injection, schedule: Q04DX003 (ip), vehicle: saline sonified",180 % of control
same,T/C,"dose: 150.0 mg/kg/injection, schedule: Q04DX003 (ip), vehicle: saline",168 % of control
c1nc(SC2CCCC2)c2[nH]cnc2n1,T/C,[3],100 % of control
same,T/C,[4],116 % of control
Oc1ccccc1C=NCCN1CC1.Oc1ccccc1C=NCCN1CC1.[Ni+2],T/C,"dose: 6.25 mg/kg/injection, schedule: Q01DX009 (ip), vehicle: Klucel (hydroxypropylcellulose) (HPC)",101 % of control
same,T/C,"dose: 12.5 mg/kg/injection, schedule: Q01DX009 (ip), vehicle: Klucel (hydroxypropylcellulose) (HPC)",101 % of control
same,T/C,[6],98 % of control
same,T/C,"dose: 25.0 mg/kg/injection, schedule: Q04DX003 (ip), vehicle: saline sonified",115 % of control
same,T/C,"dose: 50.0 mg/kg/injection, schedule: Q04DX003 (ip), vehicle: Klucel (hydroxypropylcellulose) (HPC)",122 % of control
O=Cc1cc([N+](=O)[O-])ccc1Cl,T/C,"dose: 50.0 mg/kg/injection, schedule: Q04DX003 (ip), vehicle: saline with Tween-80",100 % of control
same,T/C,"dose: 100.0 mg/kg/injection, schedule: Q04DX003 (ip), vehicle: saline with Tween-80",96 % of control
same,T/C,"dose: 200.0 mg/kg/injection, schedule: Q04DX003 (ip), vehicle: saline with Tween-80",100 % of control
CC(C)C(C)/C=C\C(C)C1CCC2C3=CCC4CC(=O)CCC4(C)C3CCC21C (centres undefined),T/C,"dose: 6.25 mg/kg/injection, schedule: Q01DX009 (ip), vehicle: saline with Tween-80",104 % of control
same,T/C,"dose: 12.5 mg/kg/injection, schedule: Q01DX009 (ip), vehicle: saline with Tween-80",104 % of control
same,T/C,[5],108 % of control
